System: passive cutaneous reaction mediated by Ig G antibodies
Test: Passive cutaneous anaphylaxis in the rat (PCR), Ig G mediated, inhibition after oral administration
Assay type: in vivo
Conditions: male Wistar rats
Experimental: Passive cutaneous anaphylaxis in the rat (PCR)
Passive cataneous anaphylaxis in the rat was carried out in male Wistar rats weighing 180-200 g sensitized by intradermal injection into four sites on shaved backs so as to produce a passive cutaneous reaction mediated by Ig G antibodies (a 4 hour sensitization following injection of antiserum heated at 56° C. for one hour). Antigen challenge was carried out in the same way; 1 mg of ovalbumen together with 0.5 ml of 1% Evans blue dye solution was injected intravenously and 30 minutes later, the animals were killed and the severity and area of each blue spot was scored when viewed from the reverse side of the skin.

| Structure (SMILES) | inhibition in vivo at 1 mg/kg | inhibition in vivo at 10 mg/kg | inhibition in vivo at 0.1 mg/kg |
| --- | --- | --- | --- |
| CCOC(=O)c1cnc2n(c1=O)-c1ccccc1N(C(=O)C1CC1)C2 [Example 5] | 23% | 33.3% | – |
| CCOC(=O)c1cnc2n(c1=O)-c1ccccc1N(C=O)C2 [Example 13, Ethyl 5,6-dihydro-6-formyl-1-oxo-1H-pyrimido [1,2-a]quinoxaline-2-carboxylate] | 4.1% | 12.4% | 0.6% |
| CCOC(=O)c1cnc2n(c1=O)-c1ccccc1N(C(C)=O)C2 [Example 3, Ethyl 6-acetyl-5,6-dihydro-1-oxo-1H-pyrimido [1,2-a] quinoxaline-2-carboxylate] | 18.5% | 33.3% | – |
| CCOC(=O)c1cnc2n(c1=O)-c1ccccc1N(C)C2 [Example 15, Ethyl 5,6-dihydro-6-methyl-1-oxo-1H-pyrimido [1,2-a] quinoxaline-2-carboxylate] | 7.7% | 30.2% | 7.7% |
| CCOC(=O)c1cnc2n(c1=O)-c1ccccc1N(C(=O)CC)C2 [Example 7] | 8.2% | 5.8% | – |
| CCOC(=O)c1cnc2n(c1=O)-c1ccccc1NC2 [Example 1, Ethyl 5,6-dihydro-1-oxo-1H-pyrimido [1,2-a] quinoxaline-2-carboxylate] | 23% | 51% | – |
| CCOC(=O)c1cnc2n(c1=O)-c1ccccc1N(C(=O)C(C)C)C2 [Example 4] | 16% | 8.9% | 4.1% |
| CCOC(=O)c1cnc2n(c1=O)-c1ccccc1N(C(=O)OCC)C2 [Example 2, Diethyl 5,6-dihydro-1-oxo-1H-pyrimido [1,2-a] quinoxaline-2,6-dicarboxylate] | 31% | 34.9% | – |
| CCOC(=O)c1cnc2n(c1=O)-c1ccccc1N(C(=O)C1CCCC1)C2 [Example 8] | 5.4% | 14.8% | – |
| CCOC(=O)c1cnc2n(c1=O)-c1ccccc1N(C(=O)Nc1ccccc1)C2 [Example 14, Ethyl 5,6-dihydro-1-oxo-6-phenylcarbamoyl-1H-pyrimido [1,2-a] quinoxaline-2-carboxylate] | 17.6% | 15.2% | – |
| CCOC(=O)c1cnc2n(c1=O)-c1ccccc1N(C(=O)c1ccccc1)C2 [Example 6, ethyl 6-benzoyl-1-oxo-5,6-dihydro-1H-pyrimido [1,2,-a] quinoxaline-2-carboxylate] | 23% | 43% | – |
